In PMC9489722, “Identification and development of a subtype-selective allosteric AKT inhibitor suitable for clinical development” (Scientific Reports, 2022):

Assays:
AKT1 = target: T1, AKT1 (Homo sapiens, UniProt P31749); assay: SelectScreen kinase selectivity profiling, AKT1; format: biochemical; details: read-out: % inhibition @ 10 µM, AKT1; 10 µM fixed concentration
T1 construct: purchased Millipore
Experimental: Off-target kinase activity was performed using the SelectScreen kinase profiling service against either mini 50 kinase or full 450 kinase panels using the Z’lyte and Adapta kinase activity platforms (performed by Thermofisher).

[1] = tested on: pAKT (Ser473) in MCF-7 cells; assay: phospho-AKT (S473) ELISA in MCF-7 cells; format: cell-based; details: Homo sapiens, MCF7, 24h treatment, read-out: EC50 inhibition of phosphorylation of AKT
Experimental: Cells were then washed with PBS and lysed. The subsequent supernatant was assayed using a GSK3β (pS9) (Invitrogen, Life Technologies) ELISA. Phospho-AKT levels were detected using the phospho-AKT (S473) immunoassay (R&D Systems) as per manufacturer’s protocol. Percentage inhibition of phosphorylation status was calculated by comparing phospho-AKT levels to total AKT levels with each treatment and IC50 values derived using non-linear regression on GraphPad Prism.

T1 sequence (P31749 whole entry): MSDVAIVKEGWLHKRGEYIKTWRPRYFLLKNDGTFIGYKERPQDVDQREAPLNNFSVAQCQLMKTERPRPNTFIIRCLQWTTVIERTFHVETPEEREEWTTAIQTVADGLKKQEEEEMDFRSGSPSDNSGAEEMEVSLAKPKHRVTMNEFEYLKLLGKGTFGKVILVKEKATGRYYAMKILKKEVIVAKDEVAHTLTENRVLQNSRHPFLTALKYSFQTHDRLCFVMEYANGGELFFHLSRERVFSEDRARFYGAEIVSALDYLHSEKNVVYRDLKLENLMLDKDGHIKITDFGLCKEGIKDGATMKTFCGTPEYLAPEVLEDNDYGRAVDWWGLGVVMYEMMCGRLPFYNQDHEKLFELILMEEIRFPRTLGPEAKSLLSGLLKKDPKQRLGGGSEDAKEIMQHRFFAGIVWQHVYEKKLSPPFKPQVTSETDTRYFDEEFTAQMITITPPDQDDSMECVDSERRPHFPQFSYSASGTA

CCN1C(=O)COc2nc(-c3ccc([C@]4(N)C[C@@H](O)C4)cc3)c(-c3ccccc3)cc21 [ALM301, 6-(4-((1S,3S)-1-amino-3-hydroxycyclobutyl)phenyl)-1-ethyl-7-phenyl-1H-pyrido[2,3-b][1,4]oxazin-2(3H)-one]
inhibition at 10 µM (AKT1): 95%
EC50 [1]: 470 nM
